{"source": "patent US12195490B2", "about": "“STRAD-binding agents and uses thereof” (The Regents of the University of California, priority 2020, dated 2025)", "data": [{"test_system": "ACHN cell line", "assay": "drug screen of the SelleckChem kinase inhibitor library with and without 5 uM SU-329, Cell-Titer Glo after 5 days", "type": "cell-based", "conditions": "kinase inhibitor at 200 nM with and without 5 uM SU329; ACHN cell line; 5 days; Cell-Titer Glo", "values": [{"compound": "CNC(=O)CN1CCC(Oc2cc3c(Nc4cccc(Cl)c4F)ncnc3cc2OC)CC1", "note": "[Sapitinib (AZD8931), AZD8931, reference compound]", "log2fc": 0.358}, {"compound": "Oc1ccc2ccccc2c1SSc1c(O)ccc2ccccc12", "note": "[IPA-3]", "log2fc": 0.5168}]}, {"molecular_target": "T1, LKB1 (Homo sapiens, UniProt Q15831+Q7RTN6)", "T1 sequence (Q15831 1-433)": "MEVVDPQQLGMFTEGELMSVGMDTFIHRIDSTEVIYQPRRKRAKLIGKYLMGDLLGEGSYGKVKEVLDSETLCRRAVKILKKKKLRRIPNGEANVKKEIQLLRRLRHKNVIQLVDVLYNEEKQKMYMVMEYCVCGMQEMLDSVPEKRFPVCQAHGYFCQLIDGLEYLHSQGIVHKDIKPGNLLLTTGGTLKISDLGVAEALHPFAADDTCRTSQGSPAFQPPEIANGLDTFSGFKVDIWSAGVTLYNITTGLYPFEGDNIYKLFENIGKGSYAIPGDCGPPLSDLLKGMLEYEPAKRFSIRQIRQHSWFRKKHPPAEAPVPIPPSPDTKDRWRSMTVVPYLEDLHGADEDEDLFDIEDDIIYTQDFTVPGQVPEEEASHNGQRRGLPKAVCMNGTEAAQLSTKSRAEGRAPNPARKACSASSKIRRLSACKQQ", "T1 sequence (Q7RTN6 1-431)": "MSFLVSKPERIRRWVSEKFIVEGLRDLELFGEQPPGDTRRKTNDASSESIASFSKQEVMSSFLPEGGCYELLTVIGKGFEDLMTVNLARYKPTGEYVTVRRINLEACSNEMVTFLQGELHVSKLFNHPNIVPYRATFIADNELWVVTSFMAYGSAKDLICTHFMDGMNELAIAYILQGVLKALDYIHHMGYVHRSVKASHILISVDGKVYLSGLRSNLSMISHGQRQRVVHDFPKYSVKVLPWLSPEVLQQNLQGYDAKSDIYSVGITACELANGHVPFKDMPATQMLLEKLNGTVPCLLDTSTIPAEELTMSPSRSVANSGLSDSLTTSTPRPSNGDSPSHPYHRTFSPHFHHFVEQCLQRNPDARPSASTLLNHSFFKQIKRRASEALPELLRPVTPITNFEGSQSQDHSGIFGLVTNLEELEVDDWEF", "T1 sequence (Q9Y376 1-341 partner)": "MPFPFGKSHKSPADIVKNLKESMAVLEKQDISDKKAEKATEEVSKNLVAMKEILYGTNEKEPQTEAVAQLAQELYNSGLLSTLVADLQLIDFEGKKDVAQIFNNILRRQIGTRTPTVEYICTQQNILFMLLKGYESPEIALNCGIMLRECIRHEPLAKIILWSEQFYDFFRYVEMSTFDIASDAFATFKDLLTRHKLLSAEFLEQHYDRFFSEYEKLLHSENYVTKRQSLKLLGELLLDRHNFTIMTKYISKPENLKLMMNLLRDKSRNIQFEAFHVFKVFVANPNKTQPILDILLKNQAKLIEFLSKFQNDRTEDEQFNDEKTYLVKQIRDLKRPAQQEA", "assay": "in vitro LKB1 functional activity", "type": "biochemical", "conditions": "APA analogs", "values": [{"compound": "COc1cc(F)c(-c2cnc(N)c(C(=O)Nc3ccc(S(=O)(=O)NC(C)=O)cc3)n2)c(F)c1", "note": "[SU20668-0375, N-(4-(N-acetylsulfamoyl)phenyl)-3-amino-6-(2,6-difluoro-4-methoxyphenyl)pyrazine-2-carboxamide]", "LKB1 % Act. Increase": "D (D=<1000%)"}, {"compound": "CCOP(=O)(OCC)c1ccc(NC(=O)c2nc(-c3ccc(C)cc3)cnc2N)cc1", "note": "[SU20668-0211, diethyl 4-(3-amino-6-p-tolylpyrazine-2-carboxamido)phenylphosphonate]", "LKB1 % Act. Increase": "D (D=<1000%)"}, {"compound": "COP(=O)(CS(=O)(=O)c1ccc(NC(=O)c2nc(-c3ccc(C)cc3C)cnc2N)cc1)OC", "note": "[SU20668-0450, dimethyl (4-(3-amino-6-(2,4-dimethylphenyl)pyrazine-2-carboxamido)phenylsulfonyl)methylphosphonate]", "LKB1 % Act. Increase": "D (D=<1000%)"}, {"compound": "Cc1ccc(-c2cnc(N)c(C(=O)Nc3ccc(S(=O)(=O)NC(=O)C(C)C)cc3)n2)cc1", "note": "[SU20668-0327, 3-amino-N-(4-(N-isobutyrylsulfamoyl)phenyl)-6-p-tolylpyrazine-2-carboxamide]", "LKB1 % Act. Increase": "D (D=<1000%)"}, {"compound": "CC(=O)NS(=O)(=O)c1ccc(NC(=O)c2nc(-c3ccc(OC(F)(F)F)cc3)cnc2N)cc1", "note": "[SU20668-0392, N-(4-(N-acetylsulfamoyl)phenyl)-3-amino-6-(4-(trifluoromethoxy)phenyl)pyrazine-2-carboxamide]", "LKB1 % Act. Increase": "D (D=<1000%)"}, {"compound": "CC(=O)NS(=O)(=O)c1ccc(NC(=O)c2nc(-c3ccc(N)cc3)cnc2N)cc1", "note": "[SU20668-0344, N-(4-(N-acetylsulfamoyl)phenyl)-3-amino-6-(4-aminophenyl)pyrazine-2-carboxamide]", "LKB1 % Act. Increase": "C (C=199-1000%)"}, {"compound": "CC(=O)NS(=O)(=O)c1ccc(NC(=O)c2nc(-c3ccc(CN(C)C)cc3)cnc2N)cc1", "note": "[SU20668-0339, N-(4-(N-acetylsulfamoyl)phenyl)-3-amino-6-(4-((dimethylamino)methyl)phenyl)pyrazine-2-carboxamide]", "LKB1 % Act. Increase": "C (C=199-1000%)"}, {"compound": "CCNP(=O)(CS(=O)(=O)c1ccc(NC(=O)c2nc(-c3ccc(C)cc3)cnc2N)cc1)OCC", "note": "(stereo not drawn) [SU20668-0480, ethyl P-(4-(3-amino-6-p-tolylpyrazine-2-carboxamido)phenylsulfonyl)methyl-N-ethylphosphonamidate]", "LKB1 % Act. Increase": "D (D=<1000%)"}, {"compound": "Cc1ccc(-c2cnc(N)c(C(=O)Nc3ccc(S(=O)(=O)Nc4cc(C)on4)cc3)n2)cc1", "note": "[SU20668-0467, 3-amino-N-(4-(N-(5-methylisoxazol-3-yl)sulfamoyl)phenyl)-6-p-tolylpyrazine-2-carboxamide]", "LKB1 % Act. Increase": "C (C=199-1000%)"}, {"compound": "Cc1ccc(-c2cnc(N)c(C(=O)Nc3ccc(S(C)(=O)=O)cc3)n2)cc1", "note": "[SU20668-0293, 3-amino-N-(4-(methylsulfonyl)phenyl)-6-p-tolylpyrazine-2-carboxamide]", "LKB1 % Act. Increase": "C (C=199-1000%)"}, {"compound": "CCOC(=O)CS(=O)(=O)c1ccc(NC(=O)c2nc(-c3ccc(C)cc3)cnc2N)cc1", "note": "[SU20668-0311, ethyl 2-(4-(3-amino-6-p-tolylpyrazine-2-carboxamido)phenylsulfonyl)acetate]", "LKB1 % Act. Increase": "C (C=199-1000%)"}, {"compound": "CC(=O)NS(=O)(=O)c1ccc(NC(=O)c2nc(-c3ccc4cn[nH]c4c3)cnc2N)cc1", "note": "[SU20668-0343, N-(4-(N-acetylsulfamoyl)phenyl)-3-amino-6-(1H-indazol-6-yl)pyrazine-2-carboxamide]", "LKB1 % Act. Increase": "C (C=199-1000%)"}, {"compound": "COP(=O)(OC)C(C)S(=O)(=O)c1ccc(NC(=O)c2nc(-c3ccc(C)cc3)cnc2N)cc1", "note": "(stereo not drawn) [SU20668-0516, dimethyl 1-(4-(3-amino-6-p-tolylpyrazine-2-carboxamido)phenylsulfonyl)ethylphosphonate]", "LKB1 % Act. Increase": "A (A=>4000%)"}, {"compound": "COP(=O)(CS(=O)(=O)c1ccc(NC(=O)c2nc(-c3ccc(S(C)(=O)=O)cc3)cnc2N)cc1)OC", "note": "[SU20668-0447, dimethyl (4-(3-amino-6-(4-(methylsulfonyl)phenyl)pyrazine-2-carboxamido)phenylsulfonyl)methylphosphonate]", "LKB1 % Act. Increase": "D (D=<1000%)"}, {"compound": "CC(=O)NS(=O)(=O)c1ccc(NC(=O)c2nc(-c3cnc(N)nc3)cnc2N)cc1", "note": "[SU20668-0372, N-(4-(N-acetylsulfamoyl)phenyl)-3-amino-6-(2-aminopyrimidin-5-yl)pyrazine-2-carboxamide]", "LKB1 % Act. Increase": "D (D=<1000%)"}, {"compound": "COC(=O)c1ccc(NC(=O)c2nc(-c3ccc(C)cc3)cnc2N)cc1F", "note": "[SU20668-0307, methyl 4-(3-amino-6-p-tolylpyrazine-2-carboxamido)-2-fluorobenzoate]", "LKB1 % Act. Increase": "D (D=<1000%)"}, {"compound": "CCOP(=O)(CS(=O)(=O)c1ccc(NC(=O)c2nc(-c3ccc(C)cc3)cnc2N)cc1F)OCC", "note": "[SU20668-0482, diethyl (4-(3-amino-6-p-tolylpyrazine-2-carboxamido)-2-fluorophenylsulfonyl)methylphosphonate]", "LKB1 % Act. Increase": "D (D=<1000%)"}, {"compound": "CCOP(=O)(CS(=O)(=O)c1ccc(NC(=O)c2nc(-c3ccc(C(F)(F)F)cc3)cnc2N)cc1)OCC", "note": "[SU20668-0488, diethyl (4-(3-amino-6-(4-(trifluoromethyl)phenyl)pyrazine-2-carboxamido)phenylsulfonyl)methylphosphonate]", "LKB1 % Act. Increase": "D (D=<1000%)"}, {"compound": "CC(=O)NS(=O)(=O)c1ccc(NC(=O)c2nc(-c3ccc4cc[nH]c4c3)cnc2N)cc1", "note": "[SU20668-0345, N-(4-(N-acetylsulfamoyl)phenyl)-3-amino-6-(1H-indol-6-yl)pyrazine-2-carboxamide]", "LKB1 % Act. Increase": "C (C=199-1000%)"}, {"compound": "CC(=O)NS(=O)(=O)c1ccc(NC(=O)c2nc(-c3ccc(C)c(F)c3)cnc2N)cc1", "note": "[SU20668-0390, N-(4-(N-acetylsulfamoyl)phenyl)-3-amino-6-(3-fluoro-4-methylphenyl)pyrazine-2-carboxamide]", "LKB1 % Act. Increase": "D (D=<1000%)"}, {"compound": "CS(=O)(=O)c1ccc(NC(=O)c2nc(-c3ccc(S(C)(=O)=O)cc3)cnc2N)cc1", "note": "[SU20668-0317, methyl 3-amino-N,6-bis(4-(methylsulfonyl)phenyl)pyrazine-2-carboxamide]", "LKB1 % Act. Increase": "C (C=199-1000%)"}, {"compound": "Cc1ccc(-c2cnc(N)c(C(=O)Nc3ccc4c(c3)CNS4(=O)=O)n2)cc1", "note": "[SU20668-0288]", "LKB1 % Act. Increase": "D (D=<1000%)"}, {"compound": "Cc1ccc(-c2cnc(N)c(C(=O)Nc3ccc(C(=O)O)c(F)c3)n2)cc1", "note": "[SU20668-0299, 4-(3-amino-6-p-tolylpyrazine-2-carboxamido)-2-fluorobenzoic acid]", "LKB1 % Act. Increase": "D (D=<1000%)"}, {"compound": "COP(=O)(CS(=O)(=O)c1ccc(NC(=O)c2nc(-c3cc(F)ccc3C#N)cnc2N)cc1)OC", "note": "[SU20668-0446, dimethyl (4-(3-amino-6-(2-cyano-5-fluorophenyl)pyrazine-2-carboxamido)phenylsulfonyl)methylphosphonate]", "LKB1 % Act. Increase": "D (D=<1000%)"}, {"compound": "CC(=O)NS(=O)(=O)c1ccc(NC(=O)c2nc(-c3ccncc3F)cnc2N)cc1", "note": "[SU20668-0374, N-(4-(N-acetylsulfamoyl)phenyl)-3-amino-6-(3-fluoropyridin-4-yl)pyrazine-2-carboxamide]", "LKB1 % Act. Increase": "C (C=199-1000%)"}, {"compound": "COP(=O)(CS(=O)(=O)c1ccc(NC(=O)c2nc(-c3ccc(C)s3)cnc2N)cc1)OC", "note": "[SU20668-0448, dimethyl (4-(3-amino-6-(5-methylthiophen-2-yl)pyrazine-2-carboxamido)phenylsulfonyl)methylphosphonate]", "LKB1 % Act. Increase": "C (C=199-1000%)"}, {"compound": "CC(=O)NS(=O)(=O)c1ccc(NC(=O)c2nc(-c3ccc(N4CCN(C)CC4)cc3)cnc2N)cc1", "note": "[SU20668-0347, N-(4-(N-acetylsulfamoyl)phenyl)-3-amino-6-(4-(4-methylpiperazin-1-yl)phenyl)pyrazine-2-carboxamide]", "LKB1 % Act. Increase": "C (C=199-1000%)"}, {"compound": "CCC(=O)NS(=O)(=O)c1ccc(NC(=O)c2nc(-c3ccc(C)cc3)cnc2N)cc1", "note": "[SU20668-0325, 3-amino-N-(4-(N-propionylsulfamoyl)phenyl)-6-p-tolylpyrazine-2-carboxamide]", "LKB1 % Act. Increase": "C (C=199-1000%)"}]}]}
